The text below walks through data of US11053239B2, “Compounds as BLC-2-selective apoptosis-inducing agents” (Fochon Pharmaceuticals, Ltd., priority 2017, dated 2021).

One test deals with DOHH2 cells. In words: Cell proliferation assay (MTS), DOHH2 cells. Type of test: cell-based. The settings on record: DOHH2 (DSMZ ACC 47) cell proliferation, 5000 cells/well, 120 h, MTS, mechanism-based readout of Bcl-2 inhibition, read-out: DOHH2 IC50. A digest of the protocol:
(§1)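 RS4;11 (30000 cells/well, 72 h) and DOHH2 (5000 cells/well, 120 h) cells in RPMI-1640/10% FBS, treated at 37 °C with compound at 1.5–10000 nM final. Viability by MTS (2 h, SDS stop), absorbance 490 nm minus 650 nm reference; IC50 fitted.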

The next test concerns RS4; 11 cells. In words: Cell proliferation assay (MTS), RS4; 11 cells. Type of test: cell-based. The settings on record: RS4, 11 (ATCC CRL-1873) cell proliferation, 30000 cells/well, 72 h, MTS, mechanism-based readout of Bcl-2 inhibition, read-out: RS4, 11 IC50. A digest of the protocol:
as §1

Where two headings read alike, the source gives them in different places.

For `CCN=S1(=O)CCN(CCNc2ccc(S(=O)(=O)NC(=O)c3ccc(N4CCN(CC5=C(c6ccc(Cl)cc6)CC(C)(C)CC5)CC4)cc3Oc3cnc4[nH]ccc4c3)cc2[N+](=O)[O-])CC1` [Example 34, 2-((1H-pyrrolo[2,3-b]pyridin-5-yl)oxy)-4-(4-((4′-chloro-5,5-dimethyl-3,4,5,6-tetrahydro-[1,1′-biphenyl]-2-yl)methyl)piperazin-1-yl)-A,-((4-((2-(1-(ethylimino)-1-oxido-1λ^6-thiomorpholino)ethyl)amino)-3-nitrophenyl)sulfonyl) benzamide], the IC50 in the test on DOHH2 cells (Homo sapiens, DOHH-2, 120 h) amounted to 38 nM; in the test on RS4; 11 cells (Homo sapiens, RS4-11, 72 h), 106 nM.

In the case of “(S)-2-((1H-pyrrolo[2,3-b] pyridin-5-yl)oxy)-4-(4-((4′- chloro-5,5-dimethyl- 3,4,5,6-tetrahydro-[1,1′- biphenyl]-2-yl)methyl) piperazin-1-yl)-N-((4-((1-(4- ((dimethyl(oxo)-λ^6- sulfanylidene)amino) piperidin-1-yl)propan-2-yl) amino)-3-nitrophenyl)sulfonyl) benzamide [Example 97]”, the IC50 in the test on DOHH2 cells amounted to 325 nM; in the test with RS4; 11 cells, 1 nM.

`COC(=O)N=S1(=O)CCN(C[C@H](C)Nc2ccc(S(=O)(=O)NC(=O)c3ccc(N4CCN(CC5=C(c6ccc(Cl)cc6)CC(C)(C)CC5)CC4)cc3Oc3cnc4[nH]ccc4c3)cc2[N+](=O)[O-])CC1` [Example 44, methyl (S)-(4-(2-((4-(N-(2-((1H-pyrrolo[2,3-b]pyridin-5-yl)oxy)-4-(4-((4′-chloro-5,5-dimethyl-3,4,5,6-tetrahydro-[1,1′-biphenyl]-2-yl)methyl)piperazin-1-yl)benzoyl)sulfamoyl)-2-nitrophenyl)amino)propyl)-1-oxido-1λ^6-thiomorpholin-1-ylidene) carbamate]: the IC50 in the test with DOHH2 cells (Homo sapiens, DOHH-2, 120 h) came to 20 nM; in the test with RS4; 11 cells (Homo sapiens, RS4-11, 72 h), 21 nM.

Turning to `CC1(C)CCC(CN2CCN(c3ccc(C(=O)NS(=O)(=O)c4cnc(NCC5CCC(N=S(C)(C)=O)CC5)c([N+](=O)[O-])c4)c(Oc4cnc5[nH]ccc5c4)c3)CC2)=C(c2ccc(Cl)cc2)C1` (stereo not shown) [Example 52, 2-((1H-pyrrolo[2,3-b]pyridin-5-yl)oxy)-4-(4-((4′-chloro-5,5-dimethyl-3,4,5,6-tetrahydro-[1,1′-biphenyl]-2-yl)methyl)piperazin-1-yl)-N-((6-(((4-((dimethyl(oxo)-λ^6-sulfanylidene)amino)cyclohexyl)methyl)amino)-5-nitropyridin-3-yl)sulfonyl) benzamide], the IC50 in the test with DOHH2 cells (Homo sapiens, DOHH-2, 120 h) turned out to be 29 nM; in the test with RS4; 11 cells (Homo sapiens, RS4-11, 72 h), 2 nM.

With `CC1(C)CCC(CN2CCN(c3ccc(C(=O)NS(=O)(=O)c4ccc(NCC(CF)N5CCP(C)(=O)CC5)c([N+](=O)[O-])c4)c(Oc4cnc5[nH]ccc5c4)c3)CC2)=C(c2ccc(Cl)cc2)C1` (stereo not shown) [Example 13, 2-((1H-pyrrolo[2,3-b]pyridin-5-yl)oxy)-4-(4-((4′-chloro-5,5-dimethyl-3,4,5,6-tetrahydro-[1,1′-biphenyl]-2-yl)methyl)piperazin-1-yl)-N-((4-((3-fluoro-2-(4-methyl-4-oxido-1,4-azaphosphinan-1-yl)propyl)amino)-3-nitrophenyl)sulfonyl)benzamide], the IC50 came to 615 nM in the test on DOHH2 cells (Homo sapiens, DOHH-2, 120 h) and 397 nM with RS4; 11 cells (Homo sapiens, RS4-11, 72 h).

As to `CC(=O)N=S1(=O)CCN(CC[C@H](C)Nc2ccc(S(=O)(=O)NC(=O)c3ccc(N4CCN(CC5=C(c6ccc(Cl)cc6)CC(C)(C)CC5)CC4)cc3Oc3cnc4[nH]ccc4c3)cc2S(=O)(=O)C(F)(F)F)CC1` [Example 89, (S)-2-((1H-pyrrolo[2,3-b]pyridin-5-yl)oxy)-N-((4-((4-(1-(acetylimino)-1-oxido-1λ^6-thiomorpholino)butan-2-yl)amino)-3-((trifluoromethyl)sulfonyl)phenyl)sulfonyl)-4-(4-((4′-chloro-5,5-dimethyl-3,4,5,6-tetrahydro-[1,1′-biphenyl]-2-yl)methyl)piperazin-1-yl)benzamide], the IC50 with DOHH2 cells (Homo sapiens, DOHH-2, 120 h) was 112 nM; with RS4; 11 cells (Homo sapiens, RS4-11, 72 h), 53 nM.

Take `C[C@@H](CCN1CCS(=O)(=NC2CC2)CC1)Nc1ccc(S(=O)(=O)NC(=O)c2ccc(N3CCN(CC4=C(c5ccc(Cl)cc5)CC(C)(C)CC4)CC3)cc2Oc2cnc3[nH]ccc3c2)cc1S(=O)(=O)C(F)(F)F` [Example 88, (S)-2-((1H-pyrrolo[2,3-b]pyridin-5-yl)oxy)-4-(4-((4′-chloro-5,5-dimethyl-3,4,5,6-tetrahydro-[1,1′-biphenyl]-2-yl)methyl)piperazin-1-yl)-N-((4-((4-(1-(cyclopropylimino)-1-oxido-1λ^6-thiomorpholino)butan-2-yl)amino)-3-((trifluoromethyl)sulfonyl)phenyl)sulfonyl)benzamide]: the IC50 in the test on DOHH2 cells (Homo sapiens, DOHH-2, 120 h) came to 464 nM; in the test with RS4; 11 cells (Homo sapiens, RS4-11, 72 h) it was 187 nM.

On to `C[C@@H](CN1CCS(=N)(=O)CC1)Nc1ccc(S(=O)(=O)NC(=O)c2ccc(N3CCN(CC4=C(c5ccc(Cl)cc5)CC(C)(C)CC4)CC3)cc2Oc2cnc3[nH]ccc3c2)cc1[N+](=O)[O-]` [Example 45, (S)-2-((1H-pyrrolo[2,3-b]pyridin-5-yl)oxy)-4-(4-((4′-chloro-5,5-dimethyl-3,4,5,6-tetrahydro-[1,1′-biphenyl]-2-yl)methyl)piperazin-1-yl)-N-((4-((1-(1-imino-1-oxido-1λ^6-thiomorpholino)propan-2-yl)amino)-3-nitrophenyl)sulfonyl) benzamide], for which the IC50 was determined as 121 nM in the test with DOHH2 cells (Homo sapiens, DOHH-2, 120 h) and 119 nM in the test with RS4; 11 cells (Homo sapiens, RS4-11, 72 h).

`CCC(=O)N=S1(=O)CCN(C[C@H](C)Nc2ccc(S(=O)(=O)NC(=O)c3ccc(N4CCN(CC5=C(c6ccc(Cl)cc6)CC(C)(C)CC5)CC4)cc3Oc3cnc4[nH]ccc4c3)cc2[N+](=O)[O-])CC1` [Example 65, (S)-2-((1H-pyrrolo[2,3-b]pyridin-5-yl)oxy)-4-(4-((4′-chloro-5,5-dimethyl-3,4,5,6-tetrahydro-[1,1′-biphenyl]-2-yl)methyl)piperazin-1-yl)-N-((3-nitro-4-((l-(1-oxido-1-(propionylimino)-1λ^6-thiomorpholino)propan-2-yl)amino)phenyl)sulfonyl) benzamide]: the IC50 in the test with DOHH2 cells (Homo sapiens, DOHH-2, 120 h) was determined as 31 nM; in the test with RS4; 11 cells (Homo sapiens, RS4-11, 72 h) it was 11 nM.

Take `CC1(C)CCC(CN2CCN(c3ccc(C(=O)NS(=O)(=O)c4ccc(NC(CF)CN5CCP(C)(=O)CC5)c([N+](=O)[O-])c4)c(Oc4cnc5[nH]ccc5c4)c3)CC2)=C(c2ccc(Cl)cc2)C1` (stereo not shown) [Example 20, 2-((1H-pyrrolo[2,3-b]pyridin-5-yl)oxy)-4-(4-((4′-chloro-5,5-dimethyl-3,4,5,6-tetrahydro-[1,1′-biphenyl]-2-yl)methyl)piperazin-1-yl)-N-((4-((1-fluoro-3-(4-methyl-4-oxido-1,4-azaphosphinan-1-yl)propan-2-yl)amino)-3-nitrophenyl)sulfonyl)benzamide]: the IC50 with DOHH2 cells (Homo sapiens, DOHH-2, 120 h) amounted to 388 nM; in the test with RS4; 11 cells (Homo sapiens, RS4-11, 72 h), 333 nM.

Consider `CC(C)OC(=O)N=S1(=O)CCN(CC[C@H](C)Nc2ccc(S(=O)(=O)NC(=O)c3ccc(N4CCN(CC5=C(c6ccc(Cl)cc6)CC(C)(C)CC5)CC4)cc3Oc3cnc4[nH]ccc4c3)cc2S(=O)(=O)C(F)(F)F)CC1` [Example 93, isopropyl (S)-(4-(3-((4-(N-(2-((1H-pyrrolo[2,3-b]pyridin-5-yl)oxy)-4-(4-((4′-chloro-5,5-dimethyl-3,4,5,6-tetrahydro-[1,1′-biphenyl]-2-yl)methyl)piperazin-1-yl)benzoyl)sulfamoyl)-2-((trifluoromethyl)sulfonyl)phenyl)amino)butyl)-1-oxido-1λ^6-thiomorpholin-1-ylidene) carbamate], for which the IC50 in the test on DOHH2 cells (Homo sapiens, DOHH-2, 120 h) came out at 537 nM; in the test on RS4; 11 cells (Homo sapiens, RS4-11, 72 h), 184 nM.
